Here are results for one compound from PMC8791448 (ACS infectious diseases, 2021).

This assay addresses T1, ecLpxC (UDP-3-O-acyl-N-acetylglucosamine deacetylase) (Escherichia coli, UniProt P0A725).
T1 sequence (P0A725 1-305): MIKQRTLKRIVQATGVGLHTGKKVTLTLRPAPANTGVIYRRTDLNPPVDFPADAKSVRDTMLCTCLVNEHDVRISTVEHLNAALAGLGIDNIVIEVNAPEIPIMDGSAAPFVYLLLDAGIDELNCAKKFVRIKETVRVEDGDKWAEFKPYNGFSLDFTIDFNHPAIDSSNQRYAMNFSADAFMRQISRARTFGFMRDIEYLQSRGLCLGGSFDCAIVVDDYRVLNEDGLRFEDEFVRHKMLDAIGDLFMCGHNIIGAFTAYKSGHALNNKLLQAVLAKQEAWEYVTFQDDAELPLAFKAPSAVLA
As to the kind of experiment: residence time on purified ecLpxC by displacement with fluorescent ligand PT900. It counts as binding. Particulars: read-out: tR (min)^b.

As for `C[C@@H](O)[C@H](NC(=O)c1ccc(C#Cc2ccc(CN3CCOCC3)cc2)cc1)C(=O)NO` [CHIR-090], the residence time is 66 ± 30 min.
